The text below walks through data of ChEMBL document CHEMBL5465560, “Selectivity Literature for EUbOPEN Chemogenomic Library” (2024).

The target of one test is Misshapen-like kinase 1 (Homo sapiens, UniProt Q8N4C8). In words: Selectivity interaction (Kinase panel (Z-LYTE Assay)) EUB0001632a MINK1. Conditions: at 10 µM.
The target in test [1] is MAP kinase-interacting serine/threonine-protein kinase 2 (Homo sapiens, UniProt Q9HBH9). In words: Selectivity interaction (LanthaScreen Eu Kinase Binding Assay) EUB0001632a MKNK2. Conditions: at 10 µM.
Chain of MAP kinase-interacting serine/threonine-protein kinase 2 (Q9HBH9 whole entry, looked up): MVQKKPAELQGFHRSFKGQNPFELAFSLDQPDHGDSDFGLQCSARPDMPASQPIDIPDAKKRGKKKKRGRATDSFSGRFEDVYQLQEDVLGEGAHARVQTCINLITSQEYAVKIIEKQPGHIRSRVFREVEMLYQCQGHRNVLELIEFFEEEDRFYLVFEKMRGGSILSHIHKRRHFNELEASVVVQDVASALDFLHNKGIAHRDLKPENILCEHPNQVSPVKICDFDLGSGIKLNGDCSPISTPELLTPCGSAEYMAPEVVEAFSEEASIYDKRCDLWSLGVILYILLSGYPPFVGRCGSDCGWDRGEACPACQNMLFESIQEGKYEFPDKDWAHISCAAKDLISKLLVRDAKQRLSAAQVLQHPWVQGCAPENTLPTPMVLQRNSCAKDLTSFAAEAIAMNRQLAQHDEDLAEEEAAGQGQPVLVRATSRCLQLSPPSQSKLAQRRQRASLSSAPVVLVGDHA
Test [2] has as its target cAMP-dependent protein kinase catalytic subunit beta (Homo sapiens) (UniProt P22694). In words: Selectivity interaction (LanthaScreen Eu Kinase Binding Assay) EUB0001632a PRKACB. The settings on record: at 10 µM.
Test [3] concerns the target Mitogen-activated protein kinase 7 (Homo sapiens) (UniProt Q13164). In words: Selectivity interaction (KinomeScan (DiscoverX)) EUB0001619a MAPK7. Conditions: at 1 µM.
Test [4] concerns the target Dual specificity testis-specific protein kinase 1 (Homo sapiens) (UniProt Q15569). In words: Selectivity interaction (KinomeScan (DiscoverX)) EUB0000666a TESK1. Conditions: at 10 µM.
Test [5] deals with Tyrosine-protein kinase HCK (Homo sapiens) (UniProt P08631). In words: Selectivity interaction (ActivX KiNativ screen (kinase selectivity in THP-1 cell lysates)) EUB0000639a HCK. Type of test: subcellular. Conditions: lysate.
Chain of Tyrosine-protein kinase HCK (Homo sapiens) (P08631 2-526 limits assumed): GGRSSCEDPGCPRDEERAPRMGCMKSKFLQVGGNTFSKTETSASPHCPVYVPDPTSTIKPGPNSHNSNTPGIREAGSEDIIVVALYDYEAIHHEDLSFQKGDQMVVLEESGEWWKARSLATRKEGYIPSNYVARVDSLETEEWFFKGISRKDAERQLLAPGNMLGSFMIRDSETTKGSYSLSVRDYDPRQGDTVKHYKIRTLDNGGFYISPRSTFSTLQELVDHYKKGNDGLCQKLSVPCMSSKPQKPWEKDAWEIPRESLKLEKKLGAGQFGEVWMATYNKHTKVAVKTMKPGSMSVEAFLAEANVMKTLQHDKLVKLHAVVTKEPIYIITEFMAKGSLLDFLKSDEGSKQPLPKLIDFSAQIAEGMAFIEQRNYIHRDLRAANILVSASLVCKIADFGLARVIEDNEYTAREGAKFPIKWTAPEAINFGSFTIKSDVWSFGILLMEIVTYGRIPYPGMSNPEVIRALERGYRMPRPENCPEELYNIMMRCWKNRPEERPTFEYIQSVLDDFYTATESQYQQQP
The target in test [6] is T1, Serine/threonine-protein kinase 3 (Homo sapiens) (UniProt Q13188).
T1 sequence (whole entry): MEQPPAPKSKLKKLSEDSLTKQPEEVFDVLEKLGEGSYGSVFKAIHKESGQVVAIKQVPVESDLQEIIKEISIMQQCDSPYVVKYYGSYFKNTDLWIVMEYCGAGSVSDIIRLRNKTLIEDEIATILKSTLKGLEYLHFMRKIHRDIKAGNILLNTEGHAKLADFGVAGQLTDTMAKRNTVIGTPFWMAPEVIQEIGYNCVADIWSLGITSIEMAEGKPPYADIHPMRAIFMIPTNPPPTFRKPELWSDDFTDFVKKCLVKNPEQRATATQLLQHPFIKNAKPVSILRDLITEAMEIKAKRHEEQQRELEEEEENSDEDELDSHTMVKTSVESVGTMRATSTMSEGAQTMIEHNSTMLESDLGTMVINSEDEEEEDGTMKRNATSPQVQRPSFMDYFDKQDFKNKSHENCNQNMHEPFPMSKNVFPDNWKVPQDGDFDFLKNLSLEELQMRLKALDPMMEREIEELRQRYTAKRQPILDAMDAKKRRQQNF
In words: Selectivity interaction (ActivX KiNativ screen (kinase selectivity in THP-1 cell lysates)) EUB0000639a STK3. Type of test: subcellular. The settings on record: lysate.

Test [7] has as its target Serine/threonine-protein kinase WNK1 (Homo sapiens) (UniProt Q9H4A3). In words: Selectivity interaction (Kinase panel (DSF assay)) EUB0001559a WNK1. Background: In DSF a fluorescence change marks the thermal transition of the protein.
The target of test [8] is Casein kinase I isoform alpha (Homo sapiens, UniProt P48729). In words: Selectivity interaction (KinomeScan (DiscoverX)) EUB0001049a CSNK1A1. The settings on record: at 1 µM.
Chain of Casein kinase I isoform alpha (P48729 2-337 limits assumed): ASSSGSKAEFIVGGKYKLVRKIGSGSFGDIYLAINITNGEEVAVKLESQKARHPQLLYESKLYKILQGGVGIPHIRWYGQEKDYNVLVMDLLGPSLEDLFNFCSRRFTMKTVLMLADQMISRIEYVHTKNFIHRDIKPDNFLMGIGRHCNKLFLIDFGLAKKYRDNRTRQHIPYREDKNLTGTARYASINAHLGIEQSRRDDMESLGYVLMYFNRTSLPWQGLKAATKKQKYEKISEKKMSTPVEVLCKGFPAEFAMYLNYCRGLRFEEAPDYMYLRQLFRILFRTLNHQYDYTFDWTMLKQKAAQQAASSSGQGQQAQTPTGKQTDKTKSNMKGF
For test [9], the target named is T2, Serine/threonine-protein kinase ULK2 (Homo sapiens) (UniProt Q8IYT8).
T2 sequence (whole entry): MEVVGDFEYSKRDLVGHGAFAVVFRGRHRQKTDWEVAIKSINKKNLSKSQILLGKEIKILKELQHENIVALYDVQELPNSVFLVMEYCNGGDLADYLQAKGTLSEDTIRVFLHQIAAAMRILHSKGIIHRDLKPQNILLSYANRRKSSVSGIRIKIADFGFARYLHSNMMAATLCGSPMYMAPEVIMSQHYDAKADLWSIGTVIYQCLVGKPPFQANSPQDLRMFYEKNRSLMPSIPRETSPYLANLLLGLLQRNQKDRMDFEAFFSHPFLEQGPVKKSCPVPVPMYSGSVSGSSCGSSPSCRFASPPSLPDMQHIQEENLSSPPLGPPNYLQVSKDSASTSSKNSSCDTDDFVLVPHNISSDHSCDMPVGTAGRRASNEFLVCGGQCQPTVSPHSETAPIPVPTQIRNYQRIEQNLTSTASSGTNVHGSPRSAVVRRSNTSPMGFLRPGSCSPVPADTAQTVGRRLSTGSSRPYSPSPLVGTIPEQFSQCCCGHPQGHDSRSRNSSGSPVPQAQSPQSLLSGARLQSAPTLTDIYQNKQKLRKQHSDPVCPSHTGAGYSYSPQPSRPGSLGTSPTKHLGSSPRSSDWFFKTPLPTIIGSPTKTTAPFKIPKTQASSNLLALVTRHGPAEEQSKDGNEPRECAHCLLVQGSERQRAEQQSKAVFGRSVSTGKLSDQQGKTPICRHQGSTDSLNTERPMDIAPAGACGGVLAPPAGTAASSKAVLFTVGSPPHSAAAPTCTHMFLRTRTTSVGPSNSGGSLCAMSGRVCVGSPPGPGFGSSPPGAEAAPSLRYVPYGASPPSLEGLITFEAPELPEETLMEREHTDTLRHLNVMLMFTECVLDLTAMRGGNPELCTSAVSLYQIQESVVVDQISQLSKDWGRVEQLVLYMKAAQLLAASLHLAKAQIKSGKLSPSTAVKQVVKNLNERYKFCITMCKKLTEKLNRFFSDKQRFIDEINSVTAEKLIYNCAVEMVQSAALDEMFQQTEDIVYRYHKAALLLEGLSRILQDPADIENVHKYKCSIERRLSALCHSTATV
In words: Selectivity interaction (KinomeScan (DiscoverX)) EUB0000229b ULK2. Conditions: at 10 µM.

Chain of Misshapen-like kinase 1 (Q8N4C8 whole entry, looked up): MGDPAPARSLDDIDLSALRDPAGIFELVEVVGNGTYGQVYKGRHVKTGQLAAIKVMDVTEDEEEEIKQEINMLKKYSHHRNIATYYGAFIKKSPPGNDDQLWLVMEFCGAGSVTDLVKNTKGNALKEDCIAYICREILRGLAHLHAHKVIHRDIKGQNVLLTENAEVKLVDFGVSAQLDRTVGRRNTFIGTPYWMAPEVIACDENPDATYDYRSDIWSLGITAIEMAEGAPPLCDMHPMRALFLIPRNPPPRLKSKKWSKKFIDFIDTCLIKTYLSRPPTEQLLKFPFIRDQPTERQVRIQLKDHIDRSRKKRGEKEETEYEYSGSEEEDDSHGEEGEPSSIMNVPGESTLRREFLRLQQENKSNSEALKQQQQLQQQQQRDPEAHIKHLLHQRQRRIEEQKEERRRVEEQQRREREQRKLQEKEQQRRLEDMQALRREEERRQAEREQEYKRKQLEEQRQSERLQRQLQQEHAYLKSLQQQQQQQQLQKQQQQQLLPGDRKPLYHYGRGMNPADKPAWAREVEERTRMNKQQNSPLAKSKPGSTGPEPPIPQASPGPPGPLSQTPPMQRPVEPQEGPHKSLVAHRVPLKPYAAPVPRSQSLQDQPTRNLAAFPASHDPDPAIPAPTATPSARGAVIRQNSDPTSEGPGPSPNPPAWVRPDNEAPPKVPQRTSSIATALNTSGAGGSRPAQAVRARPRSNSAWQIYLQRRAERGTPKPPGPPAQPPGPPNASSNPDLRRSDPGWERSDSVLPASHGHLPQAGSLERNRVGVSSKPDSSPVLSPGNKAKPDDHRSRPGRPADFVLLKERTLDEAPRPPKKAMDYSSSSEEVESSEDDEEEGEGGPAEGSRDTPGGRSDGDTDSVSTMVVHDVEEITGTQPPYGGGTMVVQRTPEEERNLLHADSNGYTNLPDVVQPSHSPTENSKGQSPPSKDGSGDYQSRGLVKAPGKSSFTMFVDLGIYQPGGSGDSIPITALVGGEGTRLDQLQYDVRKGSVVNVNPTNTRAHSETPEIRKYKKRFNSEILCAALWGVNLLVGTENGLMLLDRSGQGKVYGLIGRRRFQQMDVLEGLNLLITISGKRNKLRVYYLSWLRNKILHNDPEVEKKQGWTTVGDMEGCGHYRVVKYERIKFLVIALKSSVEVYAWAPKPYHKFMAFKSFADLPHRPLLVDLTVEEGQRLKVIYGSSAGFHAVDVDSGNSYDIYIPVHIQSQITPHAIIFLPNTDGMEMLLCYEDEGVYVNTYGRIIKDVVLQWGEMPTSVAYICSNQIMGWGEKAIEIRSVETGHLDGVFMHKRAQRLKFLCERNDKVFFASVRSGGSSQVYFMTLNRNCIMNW
Chain of Dual specificity testis-specific protein kinase 1 (Homo sapiens) (Q15569 whole entry, looked up): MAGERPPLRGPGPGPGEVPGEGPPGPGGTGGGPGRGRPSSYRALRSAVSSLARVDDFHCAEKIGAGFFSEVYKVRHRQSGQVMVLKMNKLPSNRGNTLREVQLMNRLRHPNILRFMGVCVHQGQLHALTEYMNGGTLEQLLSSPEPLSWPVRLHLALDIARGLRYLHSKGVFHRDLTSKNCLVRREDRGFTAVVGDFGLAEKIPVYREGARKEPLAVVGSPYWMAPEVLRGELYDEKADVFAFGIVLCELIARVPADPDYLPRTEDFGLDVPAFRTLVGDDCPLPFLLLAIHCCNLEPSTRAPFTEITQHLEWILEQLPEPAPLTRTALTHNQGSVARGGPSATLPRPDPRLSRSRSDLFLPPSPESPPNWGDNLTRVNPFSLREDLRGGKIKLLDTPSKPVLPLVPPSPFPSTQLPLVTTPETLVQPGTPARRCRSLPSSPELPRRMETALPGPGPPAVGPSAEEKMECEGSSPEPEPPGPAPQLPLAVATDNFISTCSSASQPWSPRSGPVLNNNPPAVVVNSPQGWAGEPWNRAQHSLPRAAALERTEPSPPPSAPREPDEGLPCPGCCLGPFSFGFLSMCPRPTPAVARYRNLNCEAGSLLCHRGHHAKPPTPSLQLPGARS
Chain of Mitogen-activated protein kinase 7 (Homo sapiens) (Q13164 2-816 limits assumed): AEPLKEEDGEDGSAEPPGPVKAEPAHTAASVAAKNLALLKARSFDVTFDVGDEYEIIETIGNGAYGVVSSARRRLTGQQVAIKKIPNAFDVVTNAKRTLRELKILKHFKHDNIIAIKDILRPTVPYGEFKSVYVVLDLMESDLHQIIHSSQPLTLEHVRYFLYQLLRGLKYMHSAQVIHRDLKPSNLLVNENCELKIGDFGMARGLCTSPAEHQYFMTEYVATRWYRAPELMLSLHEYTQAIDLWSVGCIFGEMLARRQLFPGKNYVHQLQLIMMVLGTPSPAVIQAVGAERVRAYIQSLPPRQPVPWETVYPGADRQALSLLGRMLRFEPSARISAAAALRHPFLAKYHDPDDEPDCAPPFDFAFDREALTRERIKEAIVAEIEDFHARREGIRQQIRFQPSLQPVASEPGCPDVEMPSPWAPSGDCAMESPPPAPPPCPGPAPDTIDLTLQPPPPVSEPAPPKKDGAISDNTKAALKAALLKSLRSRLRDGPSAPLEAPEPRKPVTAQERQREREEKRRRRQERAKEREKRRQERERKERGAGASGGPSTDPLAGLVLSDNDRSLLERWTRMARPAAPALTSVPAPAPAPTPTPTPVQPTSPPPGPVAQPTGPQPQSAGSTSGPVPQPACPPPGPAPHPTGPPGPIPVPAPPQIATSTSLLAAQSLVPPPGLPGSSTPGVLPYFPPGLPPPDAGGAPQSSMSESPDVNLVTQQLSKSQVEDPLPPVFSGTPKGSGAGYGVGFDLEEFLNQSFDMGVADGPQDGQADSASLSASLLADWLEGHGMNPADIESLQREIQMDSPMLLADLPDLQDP

As for `Cn1cc(-n2cnc3c(NCc4nc5cc(Cl)c(Cl)cc5[nH]4)nc(N4CCOCC4)nc32)cn1`, the % of control at Misshapen-like kinase 1 was -3.28%. The figures for the % of inhibition in test [1] and in test [2] were -36% and 4.17%, respectively.

`N#Cc1cccc(-c2c[nH]c3ncnc(N4CCOCC4)c23)c1`: in [3], the % of control came to 100%.

As for `O=C(NOC[C@H](O)CO)c1ccc(F)c(F)c1Nc1ccc(I)cc1F`, the % of control in test [4] was found to be 98%.

Regarding `CC[C@@H]1[C@H](F)C(=O)N[C@@H]1COc1nccc2cc(C(N)=O)c(OC)cc12` [ZIMLOVISERTIB], the % of inhibition is -5.9% in [5] (at 0.01 µM); -8.6% in test [5] (at 0.04 µM); -9.9% in [5] (at 0.2 µM); -4.8% in test [5] (at 1 µM); -3.1% in test [5] (at 5 µM); -6.8% in test [6] (at 0.01 µM). In addition, the % of inhibition in [6] (at 0.04 µM) was -5.9%; in [6] (at 0.2 µM), -9.3%; in test [6] (at 1 µM) it was 4%; in test [6] (at 5 µM), 11.1%.

On to `CN(C(=O)c1cnn2cccnc12)c1cc2c(cc1N1CCOCC1)C(=O)N(C[C@@H](F)C(C)(C)O)C2`, for which the dTM in test [7] was -0.6 K.

Turning to `COc1cc(Nc2nc(C)cc(-c3cnn4nc(OC)ccc34)n2)cc(C(F)(F)F)c1`, the % of control in test [8] worked out at 77%.

The molecule `COc1cc(N(C)c2ccnc3ccc(C(F)(F)F)cc23)cc(OC)c1OC` came in with a % binding in test [9] of 86%.
